{"source": "patent US10259833B2", "about": "“Natural lipids containing non-oxidizable fatty acids” (Bergen Teknologioverføring AS, priority 2013, dated 2019)", "key": {"[1]": {"test": "degradation time in vivo of ω-oxidation-blocked fatty acid analogue", "settings": "triple bond at the methyl end blocks ω-oxidation", "from_the_text": "ω-oxidation is believed to be the main pathway for degradation of the fatty acid analogues as described with a block in the X position. Fatty acid analogues in which R′ was changed by introducing a triple bond at the methyl end of the fatty acid analogue block ω-oxidation. […] Thus, this modification finds use in embodiments of the technology to potentiate the effects of the β-oxidizable fa acid analogues by further slowing down their breakdown."}, "[2]": {"tested_on": "mitochondrial β-oxidation in the liver", "settings": "sulfur in 3, 5 or 7 position relative to carboxyl end; cited from earlier work"}, "[3]": {"tested_on": "interleukin-2", "settings": "cited from earlier work"}, "[4]": {"tested_on": "acyl-CoA oxidase", "settings": "substance alone; cited from earlier work"}, "[5]": {"target": "T1, PPARα (Homo sapiens, UniProt Q07869)", "T1 sequence (Q07869 1-468)": "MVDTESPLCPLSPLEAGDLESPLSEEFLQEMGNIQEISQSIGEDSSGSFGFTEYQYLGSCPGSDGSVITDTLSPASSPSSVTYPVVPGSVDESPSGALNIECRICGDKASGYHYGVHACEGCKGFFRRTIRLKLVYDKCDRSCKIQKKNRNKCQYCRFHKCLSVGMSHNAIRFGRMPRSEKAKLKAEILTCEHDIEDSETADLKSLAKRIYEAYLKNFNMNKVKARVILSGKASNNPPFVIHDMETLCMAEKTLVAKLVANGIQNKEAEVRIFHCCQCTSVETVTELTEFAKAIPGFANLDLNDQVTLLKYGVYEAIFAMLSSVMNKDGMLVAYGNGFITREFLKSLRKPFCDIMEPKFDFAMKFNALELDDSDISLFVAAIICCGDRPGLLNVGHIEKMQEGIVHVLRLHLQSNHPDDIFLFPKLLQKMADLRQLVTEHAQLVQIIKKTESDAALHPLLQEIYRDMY", "settings": "cited from earlier work"}, "[6]": {"target": "T2, PPARγ (Homo sapiens, UniProt P37231)", "T2 sequence (P37231 1-505)": "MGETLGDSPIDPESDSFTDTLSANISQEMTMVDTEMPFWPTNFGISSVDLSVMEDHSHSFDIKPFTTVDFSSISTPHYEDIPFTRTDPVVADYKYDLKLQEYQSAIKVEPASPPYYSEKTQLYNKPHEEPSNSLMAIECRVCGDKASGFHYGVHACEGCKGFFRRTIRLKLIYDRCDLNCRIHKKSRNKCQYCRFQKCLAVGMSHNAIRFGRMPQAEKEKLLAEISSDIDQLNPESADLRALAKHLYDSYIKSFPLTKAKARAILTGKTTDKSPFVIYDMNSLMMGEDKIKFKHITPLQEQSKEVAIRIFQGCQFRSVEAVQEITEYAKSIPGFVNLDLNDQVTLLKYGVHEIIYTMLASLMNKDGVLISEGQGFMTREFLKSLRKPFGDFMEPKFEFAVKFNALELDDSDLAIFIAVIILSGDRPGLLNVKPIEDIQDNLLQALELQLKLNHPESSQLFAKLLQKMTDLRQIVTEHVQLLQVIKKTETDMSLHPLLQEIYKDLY", "settings": "cited from earlier work"}, "[7]": {"target": "T3, PPARβ (Homo sapiens, UniProt Q03181)", "T3 sequence (Q03181 1-441)": "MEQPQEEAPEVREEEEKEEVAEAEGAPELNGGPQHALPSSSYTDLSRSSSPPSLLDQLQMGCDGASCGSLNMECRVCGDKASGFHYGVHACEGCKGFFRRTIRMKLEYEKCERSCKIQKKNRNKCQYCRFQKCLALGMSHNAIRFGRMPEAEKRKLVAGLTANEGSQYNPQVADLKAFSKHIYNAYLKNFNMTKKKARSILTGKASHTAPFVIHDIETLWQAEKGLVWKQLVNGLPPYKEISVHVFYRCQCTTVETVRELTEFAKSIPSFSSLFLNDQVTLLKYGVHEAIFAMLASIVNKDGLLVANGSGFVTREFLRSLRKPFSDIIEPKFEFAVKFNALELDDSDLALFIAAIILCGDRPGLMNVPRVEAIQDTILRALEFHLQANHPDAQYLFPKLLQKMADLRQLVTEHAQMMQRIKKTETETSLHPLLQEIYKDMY", "settings": "cited from earlier work"}, "[8]": {"settings": "moderate doses, within days of treatment; cited from earlier work"}, "[9]": {"settings": "rats, 12 weeks; cited from earlier work"}, "[10]": {"tested_on": "cancer cell lines", "settings": "many cancer cell lines; cited from earlier work"}, "[11]": {"settings": "TTA alone; cited from earlier work"}, "[12]": {"tested_on": "peripheral mononuclear cells", "settings": "cited from earlier work"}}}
{"smiles": "CC#CCCCCCCCCCCCSCC", "note": "[3-thia-15-heptadecyne]", "values": [{"measurement": "degradation time in vivo", "setting": "[1]", "value": "substantially increased degradation time"}]}
{"smiles": "CCCCCCCCCCCCCCCC(=O)O", "note": "[palmitic acid]", "values": [{"measurement": "mitochondrial β-oxidation activity", "setting": "[2]", "value": 0.47}]}
{"smiles": "CCCCCCCCCCCCCCSCC(=O)O", "note": "[TTA, tetradecylthioacetic acid]", "values": [{"measurement": "release of interleukin-2", "setting": "[3]", "value": "depressing the release"}, {"measurement": "effect on acyl-CoA oxidase activity", "setting": "[4]", "value": "large increase"}, {"measurement": "PPARα ligand", "setting": "[5]", "value": "potent ligands"}, {"measurement": "PPARγ activation", "setting": "[6]", "value": "activate"}, {"measurement": "PPARβ activation", "setting": "[7]", "value": "activate"}, {"measurement": "plasma cholesterol and triacylglycerol levels", "setting": "[8]", "value": "decreases"}, {"measurement": "hepatic and plasma content of monounsaturated fatty acids (mainly oleic acid)", "setting": "[9]", "value": "nearly doubled"}, {"measurement": "polyunsaturated fatty acids (mainly linoleic acid and DHA)", "setting": "[9]", "value": "decreased"}, {"measurement": "proliferation of cancer cell lines", "setting": "[10]", "value": "reduce proliferation"}, {"measurement": "effect on plasma triacylglycerol level", "setting": "[11]", "value": "reduces plasma triacylglycerol level"}, {"measurement": "PHA stimulated proliferation of peripheral mononuclear cells", "setting": "[12]", "value": "suppressing"}]}
